For this assay, the target named is T1, BGT1 (Mus musculus, UniProt P31651).
T1 construct: from tissue; host or cells: mouse liver slices
T1 sequence (P31651 1-614): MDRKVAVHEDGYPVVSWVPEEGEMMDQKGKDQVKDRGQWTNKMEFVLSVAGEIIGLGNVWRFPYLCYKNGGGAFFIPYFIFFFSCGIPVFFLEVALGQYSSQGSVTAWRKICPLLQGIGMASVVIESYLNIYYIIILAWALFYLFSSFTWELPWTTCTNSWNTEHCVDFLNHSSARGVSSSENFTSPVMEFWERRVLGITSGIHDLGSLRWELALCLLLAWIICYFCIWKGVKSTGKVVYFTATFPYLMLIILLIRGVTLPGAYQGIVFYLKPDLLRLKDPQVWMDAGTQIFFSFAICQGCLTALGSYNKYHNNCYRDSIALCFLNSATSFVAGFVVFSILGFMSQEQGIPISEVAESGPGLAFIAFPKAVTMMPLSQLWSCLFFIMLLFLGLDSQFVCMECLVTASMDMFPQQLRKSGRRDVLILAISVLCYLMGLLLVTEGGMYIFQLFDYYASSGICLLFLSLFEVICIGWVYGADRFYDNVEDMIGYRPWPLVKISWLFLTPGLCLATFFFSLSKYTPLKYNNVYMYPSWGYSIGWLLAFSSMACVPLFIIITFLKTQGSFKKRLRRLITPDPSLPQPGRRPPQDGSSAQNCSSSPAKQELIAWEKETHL
As to the kind of experiment: liver slice media GABA with BGT1 inhibitor. In kind it is cell-based. To be noted: liver slices, 1 mM. The source says:
Two liver slices were taken from each mouse.

In the case of `C[N+](C)(C)CC(=O)O` [betaine], the “media GABA concentrations” value is given as “increases”.
